Laboratory results: PMC11769049, “Phytomedicine Potential of Oroxylum indicum Root and Its Constituents: Targeting Alzheimer’s Disease” (Plants, 2025)

Legend:
cleaved caspase-3 = experiment: Western blot of cleaved caspase-3 in H2O2-exposed SH-SY5Y cells; assay type: cell-based, Human; conditions: 250 μM H2O2, pretreatment with extract (1, 3, 10 µg/mL) or baicalein (1, 3, 10 µM)
Protocol: (§1) Neuronal cells were pretreated with the extract (1, 3, and 10 µg/mL) or baicalein (1, 3, and 10 µM) for 30 min, followed by induction of oxidative stress with hydrogen peroxide (H2O2). […] NAC (100 µg/mL) was used for the standard substance. For the experiment, SH-SY5Y cells (1 × 10^5 cells/well) were seeded onto a 6-well plate and cultured for 2 days. […] After washing unabsorbed chemicals, the cells were exposed to 250 μM H2O2 for 5 min. Treated cells were lysed with an ice-cold lysis solution. The supernatant was obtained after centrifuging the lysate at 13,500 rpm for 10 min at 4 °C. The Bradford test was used to determine the total protein content. Proteins were separated on a polyvinylidene difluoride membrane using SDS-PAGE. After blocking with BlockAce, the membrane was probed with primary antibodies against BAX, cleaved caspase-3, pTau, and BACE1. Secondary antibodies coupled with horseradish peroxidase were used for detection, followed by enhanced chemiluminescence.

BACE1 = experiment: Western blot of BACE1 in H2O2-exposed SH-SY5Y cells; assay type: cell-based, Human; conditions: 250 μM H2O2, pretreatment with extract (1, 3, 10 µg/mL) or baicalein (1, 3, 10 µM)
Protocol: as §1

Bax = experiment: Western blot of Bax in H2O2-exposed SH-SY5Y cells; assay type: cell-based, Human; conditions: 250 μM H2O2, pretreatment with extract (1, 3, 10 µg/mL) or baicalein (1, 3, 10 µM)
Protocol: as §1

[1] = test system: phosphorylated tau protein; experiment: Western blot of phosphorylated tau in H2O2-exposed SH-SY5Y cells; assay type: cell-based, Human; conditions: 250 μM H2O2, pretreatment with extract (1, 3, 10 µg/mL) or baicalein (1, 3, 10 µM)
Protocol: as §1

[2] = target: T1, Electric eel-type VI-S AChE (Electrophorus electricus, UniProt O42275); experiment: AChE inhibition, modified Ellman's method; assay type: biochemical
T1 construct: purchased
Protocol: The anti-acetylcholinesterase activity of the extract of O. indicum root and its three constituent compounds was evaluated using a modified Ellman’s method. A microplate-based assay was conducted in triplicate, comprising (i) 25 µL of 1 mM acetylthiocholine iodide, (ii) 50 µL of 0.1 M phosphate buffer (PBS), (iii) 25 µL of the sample, and (iv) 125 µL of 1 mM dithiobisnitrobenzoic acid. Electric eel-type VI-S AChE (0.2 Units/mL) was added. The control group lacked both the sample and enzyme. […] Tacrine served as a reference standard. Enzymatic activity and percent inhibition were assessed. The following equation was used to determine inhibitory activity:Percentage inhibition = [(AE − As)/(AE − AC)] × 100 where AE, AC, and As represent the enzymatic activities of the enzyme, control, and sample, respectively. The AChE inhibitory activity of the samples was expressed as the half-maximal inhibitory concentration (IC50).

[3] = DPPH radical scavenging method; conditions: for IC50: read-out: IC50 DPPH, mean ± SD (n = 3)
Protocol: After 30 min incubation period, the absorbance at 520 nm was measured using a microplate reader. The DPPH radical scavenging ability was calculated according to the following equation:Percentage inhibition = [(ADPPH − Asample)/(ADPPH − Acontrol)] × 100 where ADPPH, Asample, and Acontrol are the absorbance values of DPPH solution, sample, and control, respectively.

Aβ1–42 = Aβ1–42 (Homo sapiens, UniProt P05067); experiment: Aβ1–42 aggregation inhibition, thioflavin-T (ThT) fluorescence assay
Sequence of Aβ1–42 (P05067 672-713 limits assumed): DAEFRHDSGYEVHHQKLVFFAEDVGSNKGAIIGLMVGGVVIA
Protocol: The aggregation of Aβ1–42 was monitored using a thioflavin-T (ThT) fluorescence assay [58]. […] Following a 48 h incubation period, the mixtures were treated with 175 µL of 5 µM ThT solution prepared in a glycine/NaOH buffer at pH 8.5.

T1 sequence (O42275 24-633): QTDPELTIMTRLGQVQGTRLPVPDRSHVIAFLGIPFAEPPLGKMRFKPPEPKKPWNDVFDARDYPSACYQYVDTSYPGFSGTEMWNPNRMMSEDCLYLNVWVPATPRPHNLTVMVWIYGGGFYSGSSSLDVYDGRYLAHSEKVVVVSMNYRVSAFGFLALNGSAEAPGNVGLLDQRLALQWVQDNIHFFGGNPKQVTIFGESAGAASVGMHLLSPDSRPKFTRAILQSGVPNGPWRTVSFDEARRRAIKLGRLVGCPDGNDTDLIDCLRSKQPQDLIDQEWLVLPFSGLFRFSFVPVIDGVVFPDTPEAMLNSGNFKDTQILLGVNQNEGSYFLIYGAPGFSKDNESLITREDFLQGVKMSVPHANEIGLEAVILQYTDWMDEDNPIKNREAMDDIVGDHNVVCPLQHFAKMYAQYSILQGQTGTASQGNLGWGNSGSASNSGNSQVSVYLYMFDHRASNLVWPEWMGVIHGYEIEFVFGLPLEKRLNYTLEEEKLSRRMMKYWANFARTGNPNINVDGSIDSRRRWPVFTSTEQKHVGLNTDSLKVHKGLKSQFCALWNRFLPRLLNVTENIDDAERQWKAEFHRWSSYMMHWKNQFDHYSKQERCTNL

Compound	expression of cleaved caspase-3 (cleaved caspase-3)	BACE1 expression (H2O2-induced increase) (BACE1)	expression of pro-apoptotic protein Bax (Bax)	levels of phosphorylated tau protein [1]	IC50 [2] [µM]	IC50 [3] [µM]	IC50 (Aβ1–42) [µM]	DPPH radical scavenging activity ([3]; up to 100 µg/mL)
O=c1cc(-c2ccccc2)oc2cc(O)c(O)c(O)c12 [Baicalein]	significantly downregulated	effectively mitigated this increase	significantly downregulated	significantly reduced	159 ± 1.15	19.08 ± 0.17	–	–
O=c1cc(-c2ccccc2)oc2cc(O)cc(O)c12 [Chrysin]	–	–	–	–	45.9 ± 1.32	63.3 ± 0.89	5.86 ± 0.16	–
COc1c(O)cc2oc(-c3ccccc3)cc(=O)c2c1O [Oroxylin A]	–	–	–	–	86.9 ± 1.85	> 100	8.19 ± 0.28	minimal DPPH radical scavenging activity
Cc1c(C)c2c(c(C)c1O)CCC(C)(C(=O)O)O2 (centres unmarked) [Trolox, reference compound]	–	–	–	–	–	29.8 ± 1.59	–	–
